Measured values taken from ChEMBL document CHEMBL1201862, “PubChem BioAssay data set” (2004).
Active and inactive are the calls of the source.

What was measured:
HEK293 = assay: HEK293T cell cytotoxicity, dose response, cytotoxicity control, ATP luminescence, cherry-pick samples (AID 687005); assay type: functional, cell-based; conditions: Homo sapiens;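 note: cells exposed to compound for 48 hours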
[1] = HEK293 Cytotoxicity Assay Measured in Cell-Based System Using Plate Reader - 7071-01_Inhibitor_Dose_CherryPick_Activity_Set2.; assay type: functional
[2] = Dose-response inhibition of insulin secretion in a rat insulinoma line at 5 mM glucose (AID 1117331); assay type: functional, cell-based; conditions: INS-1E
[3] = ADAM10 protease inhibitors, dose response, selectivity assay for ADAM17 exosite inhibitor project, biochemical, FRET peptide substrate, recombinant human ADAM10 (AID 743259);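 note: ADAM10 enzyme cleaving a FRET peptide substrate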
[4] = target: Disintegrin and metalloproteinase domain-containing protein 17 (Homo sapiens, UniProt P78536); assay: exosite inhibitors of ADAM17, dose response, biochemical (AID 743260)
Disintegrin and metalloproteinase domain-containing protein 17, sequence (P78536 whole entry, the tested form may be a part): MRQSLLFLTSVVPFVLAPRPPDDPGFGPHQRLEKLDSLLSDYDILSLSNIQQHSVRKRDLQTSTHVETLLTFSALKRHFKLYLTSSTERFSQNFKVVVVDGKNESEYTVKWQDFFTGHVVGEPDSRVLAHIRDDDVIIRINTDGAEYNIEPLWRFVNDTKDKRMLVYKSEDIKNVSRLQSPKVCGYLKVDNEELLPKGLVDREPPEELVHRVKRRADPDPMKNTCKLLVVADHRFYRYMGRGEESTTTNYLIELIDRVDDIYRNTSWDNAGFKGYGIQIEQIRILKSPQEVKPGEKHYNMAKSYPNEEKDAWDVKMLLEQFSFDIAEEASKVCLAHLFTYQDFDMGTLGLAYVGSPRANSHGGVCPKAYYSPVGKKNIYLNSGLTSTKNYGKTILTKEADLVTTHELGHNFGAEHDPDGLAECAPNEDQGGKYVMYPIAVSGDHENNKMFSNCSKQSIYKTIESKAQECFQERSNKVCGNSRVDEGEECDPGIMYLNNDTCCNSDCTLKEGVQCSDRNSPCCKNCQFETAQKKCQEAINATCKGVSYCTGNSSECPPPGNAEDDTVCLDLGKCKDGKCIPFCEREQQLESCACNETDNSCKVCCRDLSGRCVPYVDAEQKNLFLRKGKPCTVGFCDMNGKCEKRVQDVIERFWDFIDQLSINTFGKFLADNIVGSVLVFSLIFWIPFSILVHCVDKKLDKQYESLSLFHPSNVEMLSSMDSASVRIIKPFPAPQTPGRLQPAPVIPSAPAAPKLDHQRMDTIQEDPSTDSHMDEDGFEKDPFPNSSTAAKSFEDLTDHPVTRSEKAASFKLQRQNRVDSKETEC

[5] = A375 melanoma cell cytotoxicity, dose response, counter-screen for MITF inhibitor project, CellTiter-Glo luminescence, dry powder, set 2 (AID 624489); assay type: functional, cell-based; conditions: A-375;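 note: actives are compounds lowering A375 viability meaning general cytotoxicity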
[6] = A375 melanoma cell viability loss, dose response, counter-screen for MITF inhibitor project, CellTiter-Glo luminescence, dry powder, set 4 (AID 624364); assay type: functional, cell-based; conditions: A-375;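 note: A375 melanoma cells are MITF independent so this is a counter screen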
[7] = MITF Orthogonal Assay: SK-MEL-5 CTG Assay Measured in Cell-Based System Using Plate Reader - 2084-02_Inhibitor_Dose_DryPowder_Activity_Set7.; assay type: functional
[8] = TRPM1 promoter luciferase reporter signal decrease, dose response, MITF inhibitor project, cell-based, SK-MEL-5, dry powder, set 8 (AID 624430); assay type: functional
[9] = MITF: Counter assay: A375 proliferation Measured in Cell-Based System Using Plate Reader - 2084-03_Inhibitor_Dose_DryPowder_Activity_Set8.; assay type: functional; conditions: A-375
[10] = target: G-protein coupled receptor 183 (Homo sapiens, UniProt P32249); assay: SAR confirmation of small molecule antagonists of the EBI2 receptor via a luminescent beta-arrestin assa.; assay type: functional
G-protein coupled receptor 183, sequence (P32249 whole entry): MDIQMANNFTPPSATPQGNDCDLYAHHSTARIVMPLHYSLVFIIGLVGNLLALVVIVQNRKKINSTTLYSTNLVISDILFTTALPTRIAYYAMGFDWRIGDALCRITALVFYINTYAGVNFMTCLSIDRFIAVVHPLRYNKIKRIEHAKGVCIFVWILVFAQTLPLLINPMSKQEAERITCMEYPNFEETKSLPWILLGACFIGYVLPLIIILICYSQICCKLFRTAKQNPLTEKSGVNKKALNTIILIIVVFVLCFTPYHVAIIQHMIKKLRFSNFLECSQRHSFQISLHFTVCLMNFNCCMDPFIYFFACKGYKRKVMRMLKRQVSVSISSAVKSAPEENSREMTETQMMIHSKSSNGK

[11] = target: T1, Dual specificity protein phosphatase 6 (Rattus norvegicus, UniProt Q64346); assay: MKP-3 phosphatase inhibitors, primary screen, biochemical, rat enzyme, in vitro (AID 425)
T1 sequence (Q64346 whole entry): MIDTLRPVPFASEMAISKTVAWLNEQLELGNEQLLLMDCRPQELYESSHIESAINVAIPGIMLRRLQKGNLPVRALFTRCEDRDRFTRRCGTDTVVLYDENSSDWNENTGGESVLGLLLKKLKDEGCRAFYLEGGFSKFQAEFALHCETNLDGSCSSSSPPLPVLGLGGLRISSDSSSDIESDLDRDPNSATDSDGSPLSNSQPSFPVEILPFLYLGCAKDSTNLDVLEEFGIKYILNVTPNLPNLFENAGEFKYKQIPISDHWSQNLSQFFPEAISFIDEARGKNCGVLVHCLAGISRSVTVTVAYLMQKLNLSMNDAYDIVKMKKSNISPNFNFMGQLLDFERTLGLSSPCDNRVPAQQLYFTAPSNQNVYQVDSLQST

[12] = Glucagon-like peptide 1 release potency, NCI-H716 cell line, dose-response, half-maximal inhibitory concentration (AID 1117344); assay type: functional, cell-based
[13] = half-maximal inhibitory concentration for glucagon-like peptide-1 release, STC-1 cell line, dose-response (AID 1117345); assay type: functional, cell-based
[14] = Concentration-dependent survival of SW480 colon cancer line, luminescence detection with CellTiter-Glo, half-maximal inhibitory concentration (AID 1117338); assay type: functional
[15] = SNU-C1 cell viability reduction, dose response, CellTiter-Glo luminescence (AID 1117323); assay type: functional, cell-based
[16] = cytotoxicity toward HT-29 cells – cell-based, CellTiter-Glo luminescence, IC50, dose response (AID 1117330); assay type: functional
[17] = CellTiter-Glo luminescent dose response of DLD-1 viability loss (AID 1117352); assay type: functional
[18] = cytotoxicity toward HCT116 cells – cell-based, CellTiter-Glo luminescence, IC50, dose response (AID 1117332); assay type: functional; conditions: HCT-116

In the case of O=C(Nc1cccc(F)c1)N[C@H]1CC[C@H](CCNS(=O)(=O)c2cccc(Cl)c2)O[C@@H]1CO, the AC50 (HEK293) is reported as 26 µM (active) and the AC50 [1] is reported as 26 µM (active).
With CCC(CN)=C(c1ccccc1)c1ccccc1 the IC50 [2] was 10.8 µM (inactive).
With COC(=O)[C@H](CC(C)C)N(CCc1cn(Cc2ccccc2)nn1)S(=O)(=O)c1ccccc1Br the IC50 [3] was > 69.5 µM (inactive) and the IC50 [4] was > 69.5 µM (inactive).
In the case of CN1CCN(C2=C(NC(=O)c3ccc(Br)cc3)C(=O)c3ccccc3C2=O)CC1, the AC50 [5] is reported as 8.99 µM (active) and the AC50 [6] is reported as 23.5 µM (active).
With O=C1C(Nc2cccc(Br)c2)=C(N2CCCC2)C(=O)c2ccccc21 the AC50 [7] was 11.8 µM (active), the AC50 [8] was 13.1 µM (active) and the AC50 [9] was > 70 µM (inactive).
In the case of O=C(/C=C/c1ccc(F)cc1)N1CCN(S(=O)(=O)c2cccc(Cl)c2)CC1, the IC50 [10] is reported as 11.5 nM (active).
In the case of O=C(/C=C/c1ccccc1F)N1CCN(S(=O)(=O)c2ccc(Br)cc2)CC1, the IC50 [10] is reported as 252 nM (active).
With O=C1C(Nc2ccc(Cl)cc2)=C(N2CCCCC2)C(=O)c2ccccc21 the AC50 [7] was 4.38 µM (active), the AC50 [8] was 2.87 µM (active) and the AC50 [9] was 26.8 µM (active).
For C[C@H]1C[C@H]2[C@@H]3CCC4=CC(=O)C=C[C@]4(C)[C@@]3(Cl)[C@@H](O)C[C@]2(C)[C@@]1(O)C(=O)CO [BECLOMETHASONE], the IC50 [11] was > 100 µM (not active).
For CCCCCCCCCCCC[N+](C)(C)CCOc1ccccc1 [DOMIPHEN BROMIDE], the IC50 [12] was 16.2 µM (inactive) and the IC50 [13] was > 40 µM (inactive).
For CC(C(=O)O)c1cccc(C(=O)c2ccccc2)c1 (stereo unspecified) [KETOPROFEN], the IC50 [14] was 10.3 µM (inactive), the IC50 [15] was 3.8 µM (active) and the IC50 [16] was 14.4 µM (inactive). For the same compound, the IC50 [17] was 8.64 µM (inactive) and the IC50 [18] was 10.5 µM (inactive).
With Cc1cc(OI)c(C(C)C)cc1-c1cc(C(C)C)c(OI)cc1C [THYMOL IODIDE] the IC50 [12] was > 40 µM (inactive), the IC50 [13] was 15.1 µM (inactive) and the IC50 [2] was > 33.3 µM (inactive).
